Common to all, as to experiment: relative viability (nuclei count vs DMSO), 5 days (fraction); higher = more cells survive
Compound in experiment [1]: C1CC1C(=O)NC2=NNC3=C2C=CC(=C3)C4=CC(=CC=C4)C(=O)NC5CC5 [XMD13-2] + Cc1cc(Nc2cc(N3CCN(C)CC3)nc(Sc3ccc(NC(=O)C4CC4)cc3)n2)n[nH]1 [Tozasertib] (partner 0.1 µM)
In short, it runs like this:
(§1)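 Lung cancer cell lines in 1536-well plates were dosed by pin tool the day after seeding, either with one drug alone or with a fixed anchor-drug dose plus five library-drug doses (not always all listed) in √10 steps. After 5 days, cells were fixed and their nuclei stained in one step (final 0.05% Triton X-100, 1% formaldehyde, 1 ug/ml Hoechst), then counted on 4× images. Relative viability is the nuclei count in treated wells divided by that in vehicle wells. Values are medians of duplicate plates.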

Compound in experiment [2]: Cc1nc(Nc2ncc(C(=O)Nc3c(C)cccc3Cl)s2)cc(N2CCN(CCO)CC2)n1 [Dasatinib] + Cc1cc(Nc2cc(N3CCN(C)CC3)nc(Sc3ccc(NC(=O)C4CC4)cc3)n2)n[nH]1 [Tozasertib] (partner 0.1 µM)
An outline of the steps: as §1

Compound in experiment [3]: Cc1nc(Nc2ncc(C(=O)Nc3c(C)cccc3Cl)s2)cc(N2CCN(CCO)CC2)n1 [Dasatinib] + Cc1nc(NC(=O)N2CCC[C@H]2C(N)=O)sc1-c1ccnc(C(C)(C)C(F)(F)F)c1 [Alpelisib] (partner 2 µM)
An outline of the steps: as §1

Compound in experiment [4]: C1CC1C(=O)NC2=NNC3=C2C=CC(=C3)C4=CC(=CC=C4)C(=O)NC5CC5 [XMD13-2] + COc1cccc2cc(-c3nc([C@H]4CC[C@H](C(=O)O)CC4)n4ncnc(N)c34)[nH]c12 [OSI-027] (partner 0.5 µM)
An outline of the steps:
as §1

In the case of SW 1573, the relative viability in experiment [1] (first compound 0.05 µM) amounted to 0.196; in experiment [1] (first compound 0.1581 µM), 0.167; in experiment [1] (first compound 0.5 µM) it was 0.155; in experiment [1] (first compound 1.581 µM), 0.145; in experiment [1] (first compound 5 µM) it was 0.354; in experiment [2] (first compound 0.005 µM), 0.174. Besides, the relative viability stood at 0.189 in experiment [2] (first compound 0.01581 µM); 0.193 in experiment [2] (first compound 0.05 µM); 0.128 in experiment [2] (first compound 0.1581 µM); 0.131 in experiment [2] (first compound 0.5 µM); 0.596 in experiment [3] (first compound 0.005 µM); 0.524 in experiment [3] (first compound 0.01581 µM). Also, the relative viability in experiment [3] (first compound 0.05 µM) was 0.438; in experiment [3] (first compound 0.1581 µM), 0.302; in experiment [3] (first compound 0.5 µM), 0.241; in experiment [4] (first compound 0.05 µM) it was 0.691; in experiment [4] (first compound 0.1581 µM) it was 0.581; in experiment [4] (first compound 0.5 µM), 0.647. Moreover, the values for the relative viability in experiment [4] (first compound 1.581 µM) and in experiment [4] (first compound 5 µM) were 0.497 and 0.36, respectively.

As for NCI-H661, the relative viability in experiment [1] (first compound 0.05 µM) came out at 0.335; in experiment [1] (first compound 0.1581 µM), 0.307; in experiment [1] (first compound 0.5 µM), 0.33; in experiment [1] (first compound 1.581 µM) it was 0.36; in experiment [1] (first compound 5 µM), 0.427; in experiment [2] (first compound 0.005 µM), 0.348. Further, the relative viability in experiment [2] (first compound 0.01581 µM) was found to be 0.34; in experiment [2] (first compound 0.05 µM), 0.324; in experiment [2] (first compound 0.1581 µM), 0.323; in experiment [2] (first compound 0.5 µM), 0.295; in experiment [3] (first compound 0.005 µM), 0.538; in experiment [3] (first compound 0.01581 µM), 0.584. Besides, the relative viability in experiment [3] (first compound 0.05 µM) amounted to 0.424; in experiment [3] (first compound 0.1581 µM) it was 0.271; in experiment [3] (first compound 0.5 µM) it was 0.254; in experiment [4] (first compound 0.05 µM), 0.848; in experiment [4] (first compound 0.1581 µM) it was 0.688; in experiment [4] (first compound 0.5 µM), 0.786. Further, the relative viability in experiment [4] (first compound 1.581 µM) was 0.63; in experiment [4] (first compound 5 µM) it was 0.494.

For the cell line LU99A, the relative viability in experiment [1] (first compound 0.05 µM) is 0.301; in experiment [1] (first compound 0.1581 µM), 0.294; in experiment [1] (first compound 0.5 µM), 0.287; in experiment [1] (first compound 1.581 µM), 0.263; in experiment [1] (first compound 5 µM) it was 0.272; in experiment [2] (first compound 0.005 µM) it was 0.233. Also, the relative viability worked out at 0.243 in experiment [2] (first compound 0.05 µM); 0.209 in experiment [2] (first compound 0.1581 µM); 0.23 in experiment [2] (first compound 0.5 µM); 0.494 in experiment [3] (first compound 0.005 µM); 0.5 in experiment [3] (first compound 0.01581 µM); 0.477 in experiment [3] (first compound 0.05 µM). Besides, the relative viability in experiment [3] (first compound 0.1581 µM) was determined as 0.288; in experiment [3] (first compound 0.5 µM) it was 0.192; in experiment [4] (first compound 0.05 µM), 0.312; in experiment [4] (first compound 0.1581 µM) it was 0.273; in experiment [4] (first compound 0.5 µM) it was 0.264; in experiment [4] (first compound 1.581 µM), 0.302. For the same cell line, in experiment [4] (first compound 5 µM), the relative viability worked out at 0.29.

With LCLC-97TM1, the relative viability in experiment [1] (first compound 0.05 µM) came to 0.235; in experiment [1] (first compound 0.1581 µM) it was 0.198; in experiment [1] (first compound 0.5 µM) it was 0.209; in experiment [1] (first compound 1.581 µM), 0.194; in experiment [1] (first compound 5 µM), 0.104; in experiment [2] (first compound 0.005 µM), 0.187. Besides, the relative viability worked out at 0.211 in experiment [2] (first compound 0.01581 µM); 0.244 in experiment [2] (first compound 0.05 µM); 0.217 in experiment [2] (first compound 0.1581 µM); 0.159 in experiment [2] (first compound 0.5 µM); 0.266 in experiment [3] (first compound 0.005 µM); 0.246 in experiment [3] (first compound 0.01581 µM). Moreover, the relative viability in experiment [3] (first compound 0.05 µM) is 0.24; in experiment [3] (first compound 0.1581 µM), 0.254; in experiment [3] (first compound 0.5 µM), 0.143; in experiment [4] (first compound 0.05 µM) it was 0.612; in experiment [4] (first compound 0.1581 µM), 0.404; in experiment [4] (first compound 0.5 µM) it was 0.603. Besides, the relative viability in experiment [4] (first compound 1.581 µM) turned out to be 0.433; in experiment [4] (first compound 5 µM), 0.445.

On to LC-2-ad, for which the relative viability in experiment [1] (first compound 0.05 µM) was 0.519; in experiment [1] (first compound 0.1581 µM), 0.528; in experiment [1] (first compound 0.5 µM), 0.436; in experiment [1] (first compound 1.581 µM), 0.41; in experiment [1] (first compound 5 µM) it was 0.45; in experiment [2] (first compound 0.005 µM), 0.421. Moreover, the relative viability in experiment [2] (first compound 0.01581 µM) was 0.366; in experiment [2] (first compound 0.05 µM), 0.315; in experiment [2] (first compound 0.1581 µM) it was 0.271; in experiment [2] (first compound 0.5 µM), 0.249; in experiment [3] (first compound 0.005 µM), 0.854; in experiment [3] (first compound 0.01581 µM), 0.703. The relative viability in experiment [3] (first compound 0.05 µM) was found to be 0.699; in experiment [3] (first compound 0.1581 µM), 0.276; in experiment [3] (first compound 0.5 µM), 0.169; in experiment [4] (first compound 0.05 µM), 0.86; in experiment [4] (first compound 0.1581 µM) it was 0.78; in experiment [4] (first compound 0.5 µM), 0.972. Moreover, the results for the relative viability in experiment [4] (first compound 1.581 µM) and in experiment [4] (first compound 5 µM) were 0.723 and 0.67, respectively.

Consider NCI-H1395, for which the relative viability was determined as 0.716 in experiment [1] (first compound 0.05 µM); 0.735 in experiment [1] (first compound 0.1581 µM); 0.796 in experiment [1] (first compound 0.5 µM); 0.787 in experiment [1] (first compound 1.581 µM); 0.807 in experiment [1] (first compound 5 µM); 0.819 in experiment [2] (first compound 0.005 µM). Besides, the relative viability came to 0.713 in experiment [2] (first compound 0.01581 µM); 0.723 in experiment [2] (first compound 0.05 µM); 0.555 in experiment [2] (first compound 0.1581 µM); 0.4 in experiment [2] (first compound 0.5 µM); 0.896 in experiment [3] (first compound 0.005 µM); 0.926 in experiment [3] (first compound 0.01581 µM). Besides, the relative viability was determined as 0.947 in experiment [3] (first compound 0.05 µM); 0.544 in experiment [3] (first compound 0.1581 µM); 0.519 in experiment [3] (first compound 0.5 µM); 0.684 in experiment [4] (first compound 0.05 µM); 0.757 in experiment [4] (first compound 0.1581 µM); 0.653 in experiment [4] (first compound 0.5 µM). Besides, the relative viability in experiment [4] (first compound 1.581 µM) amounted to 0.633; in experiment [4] (first compound 5 µM), 0.647.

NCI-H2228: the relative viability in experiment [1] (first compound 0.05 µM) turned out to be 0.267; in experiment [1] (first compound 0.1581 µM), 0.32; in experiment [1] (first compound 0.5 µM), 0.273; in experiment [1] (first compound 1.581 µM) it was 0.209; in experiment [1] (first compound 5 µM) it was 0.237; in experiment [2] (first compound 0.005 µM), 0.231. Further, the relative viability in experiment [2] (first compound 0.01581 µM) is 0.232; in experiment [2] (first compound 0.05 µM) it was 0.216; in experiment [2] (first compound 0.1581 µM), 0.185; in experiment [2] (first compound 0.5 µM), 0.184; in experiment [3] (first compound 0.005 µM) it was 0.693; in experiment [3] (first compound 0.01581 µM), 0.769. Besides, the relative viability came to 0.581 in experiment [3] (first compound 0.05 µM); 0.263 in experiment [3] (first compound 0.1581 µM); 0.268 in experiment [3] (first compound 0.5 µM); 0.824 in experiment [4] (first compound 0.05 µM); 0.605 in experiment [4] (first compound 0.1581 µM); 0.597 in experiment [4] (first compound 0.5 µM). For the same cell line, the figures for the relative viability in experiment [4] (first compound 1.581 µM) and in experiment [4] (first compound 5 µM) were 0.518 and 0.546, respectively.
